Results from ChEMBL document CHEMBL4265876, “Natural Products with Heteroatom-Rich Ring Systems” (J Nat Prod, 2017).
Values after ≈ are worked out from the molar mass of the structure shown.

Legend:
[1] = Inhibition of protein kinase A (unknown origin); set-up: species or system Homo sapiens
Escherichia coli = assay: Antibacterial activity against Escherichia coli assessed as inhibition zone at 50 ug/disk; type: functional; settings: read-out: IZ
Staphylococcus aureus = assay: Antibacterial activity against Staphylococcus aureus assessed as inhibition zone at 50 ug/disk; type: functional; settings: read-out: IZ
Saccharomyces cerevisiae = assay: Antifungal activity against Saccharomyces cerevisiae assessed as inhibition zone at 50 ug/disk; type: functional; settings: read-out: IZ
Ruegeria atlantica = assay: […] activity against Ruegeria atlantica assessed as inhibition zone at 50 ug/disk; type: functional; settings: read-out: IZ
V79 = assay: Cytotoxicity against chinese hamster V79 cells; type: cell-based; settings: Cricetulus griseus
Mucor hiemalis = assay: Antifungal activity against Mucor hiemalis assessed as inhibition zone at 50 ug/disk; type: functional; settings: read-out: IZ
Human alphaherpesvirus 1 = assay: Antiviral activity against HSV1; type: functional, organism-based
Cercospora sojina = assay: Antifungal activity against Cercospora sojina assessed as inhibition zone at 100 ug/hole; type: functional
Aspergillus niger = assay: Antifungal activity against Aspergillus niger assessed as inhibition zone at 100 ug/hole; type: functional
Fusarium oxysporum = assay: Antifungal activity against Fusarium oxysporum assessed as inhibition zone at 100 ug/hole; type: functional
SF-268 = assay: Cytotoxicity against human SF268 cells assessed as cell killing at 50 uM relative to control; type: functional
SK-MEL-2 = assay: Cytotoxicity against human SK-MEL-2 cells; type: functional; settings: read-out: ED50 (the source's name)
XF498 = assay: Cytotoxicity against human XF498 cells; type: functional; settings: read-out: ED50 (the source's name)
A549 = assay: Cytotoxicity against human A549 cells; type: functional; settings: read-out: ED50 (the source's name)
SK-OV-3 = assay: Cytotoxicity against human SKOV3 cells; type: functional; settings: read-out: ED50 (the source's name)
HCT-15 = assay: Cytotoxicity against human HCT15 cells; type: functional; settings: read-out: ED50 (the source's name)
[2] = target: Sodium-dependent dopamine transporter (Homo sapiens) (UniProt Q01959); assay: Inhibition of dopamine transporter (unknown origin) at 10 uM
[3] = target: Sodium-dependent noradrenaline transporter (Homo sapiens) (UniProt P23975); assay: Inhibition of norepinephrine transporter (unknown origin) at 10 uM
[4] = target: Sodium-dependent serotonin transporter (Homo sapiens) (UniProt P31645); assay: Inhibition of serotonin transporter (unknown origin) at 10 uM
[5] = target: Mu-type opioid receptor (Homo sapiens) (UniProt P35372); assay: Inhibition of mu opioid receptor (unknown origin) at 10 uM
HeLa S3 = assay: Cytotoxicity against human HeLaS3 cells; type: functional, cell-based
Pyricularia oryzae = assay: Antimicrobial activity against Pyricularia orizae; type: functional
L1210 = assay: Cytotoxicity against mouse L1210 cells assessed as decrease in cell viability at 5 ug; type: functional
Micrococcus luteus = assay: Antibacterial activity against Micrococcus luteus assessed as inhibition zone at 20 ug; type: functional; settings: read-out: IZ
T-cell = assay: Inhibition of ConA-induced cell proliferation of BALB/c mouse T-lymphocytes assessed as reduction in [3H]thymidine incorporation incubated for 48 hrs by beta scintillation counting method; type: functional
Influenza A virus = assay: Antiviral activity against Influenza A virus (A/Hanfang/359/95(H3N2)); type: functional, organism-based

Sodium-dependent noradrenaline transporter (Homo sapiens), sequence (P23975 whole entry): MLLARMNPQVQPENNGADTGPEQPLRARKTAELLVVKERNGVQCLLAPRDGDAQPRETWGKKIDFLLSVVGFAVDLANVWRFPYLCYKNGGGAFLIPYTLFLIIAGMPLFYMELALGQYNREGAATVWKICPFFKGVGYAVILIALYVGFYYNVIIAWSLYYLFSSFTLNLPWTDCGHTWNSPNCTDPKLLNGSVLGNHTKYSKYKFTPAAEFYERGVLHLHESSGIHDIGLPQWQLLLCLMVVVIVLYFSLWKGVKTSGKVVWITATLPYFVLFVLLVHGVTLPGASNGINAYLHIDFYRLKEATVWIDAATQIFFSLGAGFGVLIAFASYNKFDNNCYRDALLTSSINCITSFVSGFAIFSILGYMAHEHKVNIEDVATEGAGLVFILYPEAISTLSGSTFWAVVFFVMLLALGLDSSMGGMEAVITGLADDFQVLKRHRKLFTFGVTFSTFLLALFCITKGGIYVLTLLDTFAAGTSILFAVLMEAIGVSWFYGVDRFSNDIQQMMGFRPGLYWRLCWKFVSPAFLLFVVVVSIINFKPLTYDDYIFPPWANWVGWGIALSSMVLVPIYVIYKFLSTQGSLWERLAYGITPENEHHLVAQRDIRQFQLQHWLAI
Mu-type opioid receptor (Homo sapiens), sequence (P35372 whole entry): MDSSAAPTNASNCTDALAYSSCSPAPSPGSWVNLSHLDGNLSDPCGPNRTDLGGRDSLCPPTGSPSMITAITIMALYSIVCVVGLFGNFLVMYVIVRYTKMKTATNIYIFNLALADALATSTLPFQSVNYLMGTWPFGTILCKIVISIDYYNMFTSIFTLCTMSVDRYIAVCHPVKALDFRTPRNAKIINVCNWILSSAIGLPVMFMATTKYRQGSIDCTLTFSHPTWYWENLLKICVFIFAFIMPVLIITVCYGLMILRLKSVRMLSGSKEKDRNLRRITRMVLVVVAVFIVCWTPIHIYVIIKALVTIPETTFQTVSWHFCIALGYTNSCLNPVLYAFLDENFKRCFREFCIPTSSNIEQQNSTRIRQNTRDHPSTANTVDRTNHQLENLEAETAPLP
Sodium-dependent serotonin transporter (Homo sapiens), sequence (P31645 whole entry, looked up): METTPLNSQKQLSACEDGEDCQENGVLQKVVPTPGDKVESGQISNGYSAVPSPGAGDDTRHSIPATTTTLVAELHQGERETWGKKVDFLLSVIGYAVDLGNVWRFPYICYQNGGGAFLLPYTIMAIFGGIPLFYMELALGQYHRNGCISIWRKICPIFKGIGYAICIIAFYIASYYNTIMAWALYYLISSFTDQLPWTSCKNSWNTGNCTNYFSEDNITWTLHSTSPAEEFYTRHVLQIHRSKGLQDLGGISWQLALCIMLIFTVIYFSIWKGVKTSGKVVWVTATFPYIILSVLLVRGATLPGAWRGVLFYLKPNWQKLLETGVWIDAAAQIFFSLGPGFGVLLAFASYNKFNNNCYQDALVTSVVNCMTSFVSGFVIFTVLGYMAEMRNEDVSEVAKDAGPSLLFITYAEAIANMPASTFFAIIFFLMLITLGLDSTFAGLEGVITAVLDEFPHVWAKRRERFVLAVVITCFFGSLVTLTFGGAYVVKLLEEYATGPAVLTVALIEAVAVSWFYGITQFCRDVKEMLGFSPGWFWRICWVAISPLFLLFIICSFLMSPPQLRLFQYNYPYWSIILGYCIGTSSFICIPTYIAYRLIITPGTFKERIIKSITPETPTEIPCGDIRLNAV
Sodium-dependent dopamine transporter (Homo sapiens), sequence (Q01959 whole entry): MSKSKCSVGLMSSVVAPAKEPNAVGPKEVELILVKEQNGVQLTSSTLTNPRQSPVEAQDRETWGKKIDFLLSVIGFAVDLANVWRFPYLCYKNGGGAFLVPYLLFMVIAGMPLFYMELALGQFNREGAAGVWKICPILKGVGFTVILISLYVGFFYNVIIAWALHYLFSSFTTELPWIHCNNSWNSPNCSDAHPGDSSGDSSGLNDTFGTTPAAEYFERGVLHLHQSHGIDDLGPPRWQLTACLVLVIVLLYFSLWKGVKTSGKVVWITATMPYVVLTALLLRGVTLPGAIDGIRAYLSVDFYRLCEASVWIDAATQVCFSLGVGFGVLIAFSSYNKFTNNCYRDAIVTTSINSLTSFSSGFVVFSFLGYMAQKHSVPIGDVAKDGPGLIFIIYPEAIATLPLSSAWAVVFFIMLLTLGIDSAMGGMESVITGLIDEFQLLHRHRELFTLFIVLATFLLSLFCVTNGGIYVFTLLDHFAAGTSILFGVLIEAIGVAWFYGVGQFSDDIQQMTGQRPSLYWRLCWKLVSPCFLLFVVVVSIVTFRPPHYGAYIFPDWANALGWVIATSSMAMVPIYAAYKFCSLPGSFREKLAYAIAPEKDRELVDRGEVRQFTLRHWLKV

COc1c(OC)c2c(c(CCN)c1SC)SSS2
IC50 [1]: > 25 µg/mL

COc1c(OC)c2c(c(CCN)c1SC)SSSSS2
IC50 [1]: > 25 µg/mL

COc1cc(CCN(C)C)c2sc3c(O)c(OC)cc(CCN(C)C)c3ssc2c1O [LISSOCLIBADIN 4]
zone of inhibition at 50 µg/disc (Escherichia coli): 15.7 mm
zone of inhibition at 50 µg/disc (Staphylococcus aureus): 13.1 mm

COc1c(OC)c2c(c(CCN(C)C)c1SC)SSSSS2
zone of inhibition at 50 µg/disc (Saccharomyces cerevisiae): 14.2 to 30 mm
zone of inhibition at 50 µg/disc (Ruegeria atlantica): 14.2 to 30 mm
IC50 (V79): 0.15 µM
zone of inhibition at 50 µg/disc (Escherichia coli): 14.2 to 30 mm
IC50 [1]: > 25 µg/mL
zone of inhibition at 50 µg/disc (Staphylococcus aureus): 14.2 to 30 mm
zone of inhibition at 50 µg/disc (Mucor hiemalis): 14.2 to 30 mm

C=C[C@H](O)Cc1nsc(C2=CCCS[C@@]23C(=O)Nc2ccccc23)n1
IC50 (Human alphaherpesvirus 1): 25.9 µM

CC(=O)O[C@H]1CC[C@]23C[C@]24CC[C@]2(C)[C@@H]([C@H](C)CCC5OOC(C)(C)O5)CC[C@@]2(C)[C@@H]4CC[C@H]3C1(C)C (stereo partly specified)
inhibition zone (IZ) (Cercospora sojina): 2 mm
inhibition zone (IZ) (Aspergillus niger): 2 mm
inhibition zone (IZ) (Fusarium oxysporum): 2 mm

CC[C@H](C)C1=C(O)[N@+]2([O-])Oc3ccc(-c4c(O)c(O)c(-c5ccc(OC(C)=O)cc5)c(OC(C)=O)c4OC(C)=O)cc3O[C@@]2([C@@H](C)CC)C(=O)N1O
Activity (SF-268): 96%

CC(C)CCCCC1=CN=CN2COC(=O)N12
EC50 (SK-MEL-2): 0.76 µg/mL (≈ 3.2 µM)
EC50 (XF498): 0.7 µg/mL (≈ 2.95 µM)
EC50 (A549): 0.62 µg/mL (≈ 2.61 µM)
EC50 (SK-OV-3): 0.36 µg/mL (≈ 1.52 µM)
EC50 (HCT-15): 0.6 µg/mL (≈ 2.53 µM)

N=C(N)NCCCCCNc1noc(Cc2c[nH]c3ccccc23)n1
inhibition [2]: 96%
inhibition [3]: 45%
inhibition [4]: 16%
inhibition [5]: 97%

CN1CN2CCCN3CCCC(=N1)C32 (stereo unspecified)
IC50 (HeLa S3): 6.8 µg/mL (≈ 35 µM)

COc1c(OC)c2c(c(CCN(C)C)c1SC)SSS2
zone of inhibition at 50 µg/disc (Saccharomyces cerevisiae): 10.3 to 32.4 mm
zone of inhibition at 50 µg/disc (Ruegeria atlantica): 10.3 to 32.4 mm
IC50 (V79): 0.19 µM
zone of inhibition at 50 µg/disc (Escherichia coli): 10.3 to 32.4 mm
IC50 [1]: > 25 µg/mL
zone of inhibition at 50 µg/disc (Staphylococcus aureus): 10.3 to 32.4 mm
zone of inhibition at 50 µg/disc (Mucor hiemalis): 10.3 to 32.4 mm

C1SCSSCS1
MIC (Pyricularia oryzae): 50 µg/mL (≈ 294 µM)

N[C@@H]1CSCON2CCc3c([nH]c4ccc(O)c(Br)c34)[C@H]12 [EUDISTOMIN E]
Activity (L1210): 100%
zone of inhibition at 20 µg/disc (Micrococcus luteus): 46 mm

COC1=C[C@@H](C)O[C@@H](O[C@H]2CC[C@@]3(C)C(=CC[C@@H]4[C@@H]3CC[C@@]3(C)[C@H]4CC[C@]3(O)[C@H](C)O[C@H]3C[C@H]4OCO[C@@]5(C[C@@H](OC)[C@H](O[C@H]6C[C@H](OC)[C@H](O[C@H]7C[C@@H](O)[C@H](O[C@H]8C[C@H](OC)[C@H](O[C@H]9C[C@@H](OC)[C@H](O)[C@@H](C)O9)[C@@H](C)O8)[C@@H](C)O7)[C@@H](C)O6)[C@@H](C)O5)O[C@@H]4[C@@H](C)O3)C2)C1=O
IC50 (T-cell): 0.29 to 1.97 µM

CN[C@@H]1CSCON2CCc3c([nH]c4ccc(O)c(Br)c34)[C@H]12
Activity (L1210): 100%
zone of inhibition at 20 µg/disc (Micrococcus luteus): 41 mm

C=C[C@@H](O)Cc1nsc(C2=CCCS[C@]23C(=O)Nc2ccccc23)n1
IC50 (Human alphaherpesvirus 1): 33.3 µM
IC50 (Influenza A virus): 33.3 µM
